Structures are written as SMILES. Where only a bound is given, the exact number is not on record here.

These results are taken from a melting point compilation (Tetko et al.; mined from patent text by program, amines drawn as free bases though some values may be those of a salt).

For orientation: melting point means the temperature of the solid-liquid transition. In the case of `CC(=O)C(=O)c1ccc(NS(C)(=O)=O)c(Sc2ccc(F)cc2F)c1`, the melting point is 108 to 109 °C.
In turn, `CCN1C(=O)C(F)N=C(c2ccccc2)c2cc(Cl)ccc21` (stereo not drawn) had a melting point of 156 to 158 °C.
As for `CC(C)(O)CCn1c2ccccc2c2cc(NC(=O)c3ccccc3C(F)(F)F)ccc21`, the figure is 188 to 189 °C; as for `Nc1cc2c(Nc3ccc(F)c(Cl)c3)ncnc2cc1OCC1CC1`, 208 °C.
The value for `Cn1ccc2c3c(c(-c4ccccc4S(C)=O)cc21)C(=O)NC3=O` (stereo not drawn) was 311 to 315 °C.
As for `COc1ccc(-c2ccc3c(c2)c2ccc(Cl)nc2n3S(=O)(=O)c2ccccc2)cc1`, the figure is 176 to 178 °C.
Regarding `N#Cc1ccsc1C1=CC(=O)Nc2cc(-c3ccccc3F)c(O)cc2N1`, the melting point came out at 242 °C.
The compound `COc1ccc(C(=O)c2ccccc2C)cc1C` displayed a melting point of 72 to 73 °C.
As for `Cc1nc(-n2cc(COc3ccccc3)nn2)sc1C(=O)NCc1ccccc1`, the figure is 140 to 143 °C; as for `CCCCCCCCCCCCc1nnn(CC(=O)Nc2c(OC)cc(OC)cc2OC)n1`, 144 to 146 °C; as for `O=C(O)c1ccc(-c2ccc(C(=O)O)c(C(=O)O)c2)cc1C(=O)O`, 295 to 302 °C.
Turning to `Cc1cc(OCCNC(=O)C2Cc3ccccc3N2S(=O)(=O)c2ccc(-c3cccc(C(F)(F)F)c3)cc2)ccc1CC(=O)O` (stereo not drawn), the melting point was 87 to 90 °C.
As for `O=c1c(CCl)csc2ccc3ccccc3c12`, the figure is 151 to 153 °C; as for `CCCN(CCCc1c[nH]c2c(OC)cccc12)C1COc2c(F)ccc(C(N)=O)c2C1` (stereo not drawn), 158 to 164 °C; as for `COc1ccc2c(c1)sc1ncc(C(O)CCc3ccccc3)n12` (stereo not drawn), 166 to 167 °C.
The value for `COc1ccc(S(=O)(=O)Nc2ccc([C@@H](C)C(N)=O)cc2)cc1` was 118 to 120 °C; that for `CCCCNC(=O)OCC(=O)O` was 83 to 84 °C; that for `COC(=O)C(C)(C)CC(=O)CCc1ccc(Cl)cc1` was 52 to 54 °C.
The compound `COc1ccc(CCNc2ncnc3c(F)ccc(F)c23)cc1C` gave a melting point of 162 to 169 °C.
As for `CC(=O)Oc1ccc(Cn2c(-c3ccccc3)nc(Cl)c2CC(=O)O)cc1C`, the figure is 200 to 203 °C; as for `COc1ccc(C(=O)NCCOc2ccc(CC(Oc3ccccc3)C(=O)O)cc2)cn1` (stereo not drawn), 145 to 146 °C; as for `O=C(Oc1ccccc1)N1Cc2ccccc2C2(Cc3ccc(Cl)cc3O2)C1` (stereo not drawn), 138 to 140 °C.
The value for `COc1ccc(O[C@H](C)C(=O)O)c(C(=O)c2ccc(OCc3nc(-c4ccccc4)oc3C)cc2)c1` was 119 to 120 °C; that for `Nc1cc(Cl)c(I)c(Cl)c1` was 147 to 148 °C.
As for `CCCCc1nc2c(C)cccc2n1Cc1cc(C(=O)OC)no1`, the figure is 96 to 101 °C.
Consider `Cc1ccn2ncc(C(=O)NC3CN4CCC3CC4)c2c1` (stereo not drawn), for which the melting point was 100 to 102 °C.
As to `CC(=O)OC1CSC(Oc2cccc(-c3ccsc3)c2)C(OC(C)=O)C1OC(C)=O` (stereo not drawn), the melting point amounted to 111 °C.
As for `Cn1cnc(C(O)c2cc(Cl)cc3c2OC(C)(C)OC3)c1` (stereo not drawn), the melting point lay within 131 to 136 °C.
Turning to `CCOC(=O)c1cnc(-c2ccccc2)nc1Nc1ccccc1N`, the melting point lay within 154 to 156 °C.
In turn, `O=C1c2ccccc2-c2c1c(=O)[nH]c1ccccc21` had a melting point of more than 290 °C.
In turn, `COC(=O)C(NC(C)=O)C(=O)OCCCl` (stereo not drawn) had a melting point of 81 to 82 °C.
As for `CCOC(=O)Cc1cn2cc(Br)nc(NC)c2n1`, the figure is 104 °C; as for `CC(C)CC(SC1CCCC1)c1c(O)cc(-c2ccccc2)oc1=O` (stereo not drawn), 146 to 149 °C.
Compound `COC(=O)N1Cc2nc(C(=O)O)cn2-c2ccccc21` displayed a melting point of 204 to 208 °C.
As for `N[C@@H](CO)C(=O)NCc1ccccc1`, the figure is 76 to 80 °C; as for `CCCCc1nc(C(O)c2ccccc2)c(C(=O)O)n1Cc1ccc(-c2ccccc2C(=O)O)cc1` (stereo not drawn), 192 to 194 °C.
The value for `CN(Cc1ccccc1)C(=N)N[N+](=O)[O-]` was 103 to 107 °C.
As for `Nc1ncc(C#Cc2ccc(Cl)cc2)c(OCCOCCO)n1`, the figure is 142 to 143 °C; as for `CN1Cc2c(C(=O)OC(C)(C)C)ncn2-c2cccnc2C1=O`, 234 to 236 °C.
`O=c1[nH]c(N2CCOCC2)nc2c1C=CCC2`: the melting point lay within 228 to 230 °C.
The value for `NC(=O)N(O)CCNC(=O)c1ccc(Oc2ccccc2)o1` was 160 to 163 °C; that for `Cn1cc(C=O)cc1C(=O)OC(C)(C)C` was 92 °C.
As for `CNC(=O)N(O)C(C)c1ccc(F)c(Br)c1` (stereo not drawn), the figure is 137 to 138 °C; as for `CCOC(=O)C(=CNC1CC1)C(=O)c1c(F)cc(F)c(F)c1C`, 69 to 72 °C; as for `CCCCCCCCC#CCC#CCC#CCS(=O)(=O)CC(=O)NCC`, 83 °C.
As for `c1ccc(Sc2cc3cc4cc5ccccc5cc4cc3cc2Sc2ccccc2)cc1`, the figure is more than 260 °C; as for `CCCCCCCCCCCCCCCCOCC(CO)Oc1ccon1` (stereo not drawn), 50 to 51 °C; as for `COc1cccc(CC(=O)O)c1OCCCc1cn(-c2ccc(C(F)(F)F)cn2)nc1-c1ccccc1`, 134 to 135 °C.
`CC(=O)c1c(F)cccc1N1CCN(C(=O)OC(C)(C)C)CC1` had a melting point of 88 °C.
The value for `O=C(CCCl)c1ccc2c(c1)Cc1cc(C(=O)CCCl)ccc1O2` was 180 to 181 °C; that for `CN(C)Cc1ccccc1Oc1cccc(CC(=O)O)c1` was 205 to 208 °C; that for `CCCn1c2cc(OCc3ccccc3)ccc2c2ccnc(C)c21` was 113 °C.
As for `COc1cc(CNC(=S)NC(COC(=O)C(C)(C)C)Cc2ccc(C(C)(C)C)cc2)ccc1O` (stereo not drawn), the figure is 117 to 119 °C; as for `CCCCOC(=O)CS(=O)C(C)c1ccc(-c2ccccc2F)cc1` (stereo not drawn), 72 to 74 °C; as for `Cc1ccc2ccccc2c1COc1ccc(C(=O)NC[C@@H](C(=O)NO)N2CCN(S(C)(=O)=O)CC2)cc1`, 155 °C.
As for `Cc1c(Br)cccc1NS(=O)(=O)c1cc(S(=O)(=O)Nc2cccc(Br)c2C)c2ccccc2c1O`, the figure is 246 to 248 °C; as for `CCOC(=O)c1cnc2cc(NC(C)=O)ccc2c1O`, 295 to 300 °C; as for `CS(=O)(=O)c1ccc(COc2cc(C=C3SC(=S)N(CC(=O)O)C3=O)ccc2OCc2ccccc2)cc1`, 207 to 211 °C.
As to `O=C(Oc1ccccc1)N1CCCc2nc3ccccc3c(O)c2C1`, the melting point came out at 299 °C.
The value for `COc1cc2c3c(c1O)C1(C=CC(=O)C=C1)CC3N(C)CC2` (stereo not drawn) was 225 °C; that for `O=C1OC(=O)c2cc3cc(O)ccc3cc21` was 266 °C; that for `CC(=O)C1CCC2C3CCC4CC(O)C(O[N+](=O)[O-])CC4(C)C3C(=O)CC12C` (stereo not drawn) was 170 to 176 °C.
As for `O=c1[nH]c2c(Cl)sc(Cl)c2c(=O)c2cscc12`, the figure is 236 to 239 °C; as for `Cn1cc(C(=O)O)c(=O)c2oc3ccccc3c(=O)c21`, 308 to 312 °C.
The value for `COC1=C(C#N)C(c2ccccc2)=C2C(=O)N(C)C(c3ccccc3)=C12` was 210 to 212 °C; that for `CC[Si](CC)(CC)OC1CCCc2cnc3ccc(OCc4ccccc4[N+](=O)[O-])cc3c21` (stereo not drawn) was 110 to 111 °C.
Compound `CCOC(=O)c1c(N)nc(-c2ccc([N+](=O)[O-])cc2)c([N+](=O)[O-])c1C(=O)OCC` came in with a melting point of 148 to 150 °C.
Consider `CCc1c(C)c(=O)oc2cc(-c3ccc(C(C)C)cc3)cc(OC)c12`, for which the melting point was found to be 83 °C.
The value for `O=S1(=O)c2cccc3cccc(c23)N1CCCCN1CCN(c2nsc3ccccc23)CC1` was 123 °C.
The compound `O=C(Nc1ccc(F)cc1F)N(Cc1ccccc1)CC(c1ccccc1)c1ccccc1` came in with a melting point of 120 to 123 °C.
With `COc1ccc2c(c1)CCC1C2CCC2(C)C(NCCCCCCCCCCN)CCC12` (stereo not drawn), the melting point is 55.5 to 57.5 °C.
Regarding `CC(C)(N)c1ccc(-c2nc(Nc3ccc(CCN4CCCCC4)cc3)ncc2C#N)cc1`, the melting point amounted to 114 °C.
The value for `CNC(=O)CCC(=NNC(N)=S)c1ccccc1` was 205 to 207 °C; that for `Nc1ccncc1-c1n[nH]c2ccccc12` was 237 to 239 °C; that for `CC(C)(C)OC(=O)N1CCC=C(C(=O)O)C1` was 198 to 202 °C.
As for `CC(=O)N(c1cc2occc(=O)c2cc1Oc1ccccc1)S(C)(=O)=O`, the figure is 166 to 169 °C; as for `CCCCCCCCCCCCCCCC(=O)NCCCN1CCCCC1C` (stereo not drawn), 48 to 50 °C; as for `COc1cccc([C@H]2O[C@H](CC(=O)N[C@@H](C)C(=O)O)C(=O)N(CC(C)(C)CO)c3ccc(Cl)cc32)c1OC`, 133 to 135 °C.
As for `OC(CNCC(O)C1CCc2ccccc2O1)C1CCc2ccccc2O1` (stereo not drawn), the figure is 131 °C; as for `O=C(Nc1ccccc1Oc1ccccc1-c1nnn[nH]1)c1ccc(OCc2ccc3ccccc3n2)cc1`, 224 to 226 °C.
With `COc1cnn(C2CCCCO2)c(=O)c1` (stereo not drawn), the melting point fell in the range of 76 to 78 °C.
As for `CCc1nc2c(cnn2CC)c(NC2CCOCC2)c1CNC(=O)c1cccc(C(=O)NCc2ccc(Cl)c(Br)c2)c1`, the figure is 115 to 117 °C.
The value for `COc1ccc(NC(=O)c2ccccc2-c2cccc(F)c2)cc1` was 161 to 163 °C.
As for `C#C[C@](C)(O)CCc1c(C)c(OC(C)=O)c(C)c(C)c1OC(C)=O`, the figure is 96 to 102 °C; as for `CC(C)(C)N1CN(C(C)(C)C)C(N)=C2C=NN=C21`, 158 to 161 °C.
Consider `CCOC(=O)c1c(Cn2cncn2)nc2cc(OC)c(OC)cc2c1-c1ccc(O)c(OC)c1`, for which the melting point is 176 to 178 °C.
The value for `Cn1c(=O)c(=O)[nH]c2cc([N+](=O)[O-])c([N+](=O)[O-])cc21` was 370 to 380 °C; that for `COCn1cc2cc(C)c(NC(=O)c3cc(OC)nn3-c3ncccc3Cl)c(C(=O)NC(C)C)c2n1` was 148 °C.
